In series [1] the test system is FSMCs. Type of series: cell-based, mouse.
Description: In brief, FSMCs (2×10^6 m^−1) were preloaded with or without anti-DNP-IgE (0.3 g ml^−1) in RPMI with IL-3 for 15 hours. Cells were washed and loaded with Fluo-4AM (5 μM, Life Technologies) for 30 minutes. Cells were washed again and further incubated in Tyrode's buffer with or without EGTA (1 mM) for 30 minutes. DNP-HSA (30 ng ml^−1), Ionomycin (1 μM) or δ-toxin (30 μg ml^−1) were used to induce calcium flux in these cells.
In series [2] the test system is MCs (FSMCs, BMCMCs, MC/9 cells). Type of series: cell-based, mouse. The following applies: in vitro; for effect on MC degranulation induced by δ-toxin: pre-treatment before δ-toxin stimulation. How it is done: Preparations of BMCMCs and fetal skin-derived mast cells (FSMCs) were previously described in Yamada, et al., J Invest Dermatol 121, 1425-1432 (2003). The purity of MCs was confirmed by surface expression of CD45 and CD117 (eBioscience).
Degranulation of MCs was assessed by β-hexosaminidase assay as previously described in Yamada, et al., J Invest Dermatol 121, 1425-1432, (2003). Briefly, MCs (2×10^6 m^−1) were preloaded with or without anti-DNP IgE (0.3 μg ml^−1) in RPMI with IL-3 for 15 hours. The cells were resuspended in Tyrode's buffer (Sigma) at 2×10^4 cells per 100 μl for FSMCs or 1×10^5 cells per 100 μl for BMCMCs and MC/9 cells, aliquoted in triplicate into a 96-well U-bottom plate and incubated with EGTA (1 mM, Sigma), LY294002 (100 μM, Sigma) and WRW4 (Trp-Arg-Trp-Trp-Trp-Trp-CONH2 (SEQ ID NO: […], American peptide) and Cyclosporine H (10 μM, Alexis Biochemicals) for 30 min, and then stimulated with DNP-HSA (30 ng ml^−1) TNP-HSA (30 nM) for 30 min, followed by exposure to Ionomycin (1 μM, Sigma) δ-toxin (indicated concentrations), PSMαs (indicated concentrations) or FPR2 ligands for 15 min. Results of various stimuli are given as a relative percentage, where freeze and thaw of total cell culture represents 100%.

In series [3] the test system is MC degranulation in vivo. Nature of the series: Passive cutaneous anaphylaxis (PCA) assay, Evans blue leakage in ear skin. To be noted: mice pretreated with WRW4, then S. aureus culture supernatant intradermally.
Description: To assess whether δ-toxin induces MC degranulation in vivo, synthetic δ-toxin was injected into the skin of mouse ears and MC degranulation was monitored by the vascular leakage of Evan's blue dye into the extravascular space using the passive cutaneous anaphylaxis (PCA) assay.
Four to six weeks later, the mice were subjected to experimental PCA or epicutaneous S. aureus sensitization. […] PCA assay was performed as described, with minor modifications. […] After inoculation, 0.1 ml of 5 mg ml −1 Evans blue dye was injected intravenously. Extravasation of Evans blue dye was monitored for 30 minutes, and 4 mm of punched-out biopsies were incubated at 63° C. overnight in 200 μl formamide. Quantitative analysis of extracts was determined by measuring the absorbance at 600 nm.
The subject of series [4] is MC/9 cells. Nature of the series: Viability of MCs after stimulation with synthetic PSMs (LDH release). To be noted: synthetic peptides. Background: LDH leaks from cells whose membrane has failed.
Description: (a) % LDH released from MC/9 cells stimulated by medium alone (Ctrl) and indicated concentrations (μg ml^−1) of PSMs for 15 or 60 minutes. […] Data represent means±s.d. of triplicate cultures. Data are representative of three independent experiments.
Because δ-toxin is highly related to PSMα2 and PSMα3, the viability of MCs after stimulation with synthetic PSMα2, PSMα3, or δ-toxin, was assessed.
The test system of series [5] is primary mouse macrophages and keratinocytes. Nature of the series: Cell toxicity by LDH assay in primary mouse macrophages and keratinocytes.
Description: Cell toxicity of δ-toxin. BMCMCs, BMMφ (bone marrow derived macrophages), bone marrow neutrophils and primary keratinocytes isolated from mice were stimulated with PSMα (10 μg ml−1) or δ-toxin (10 or 100 μg ml−1) for indicated times. Cell toxicity was measured by LDH assay. Data represent means±s.d. of triplicate cultures. NS; not significant, ***P<0.001, one-way ANOVA with Tukey's post-hoc test for multiple comparisons. Data are representative of two independent experiments.

Ends that are not written are not given here. Peptide text beside a SMILES is read from it. * marks the point of attachment. For = O=C*

Take `O=C(O)CN(CCOCCOCCN(CC(=O)O)CC(=O)O)CC(=O)O` [EGTA, ethylene glycol tetraacetic acid]: the “effect on δ-toxin-triggered Ca2+ influx” value in series [1] (EGTA 1 mM) is “abrogated”. Further, the “effect on MC degranulation induced by δ-toxin” value in series [2] was “blocked MC degranulation”.
On to pertussis toxin, for which, in series [2], the “effect on MC degranulation induced by δ-toxin” value is given as “partially reduced”.
As for “Trp-Arg-Trp-Trp-Trp-Trp-CONH2 (WRWWWW-NH2) [WRW4]”, the “effect on MC degranulation induced by δ-toxin in vivo” value in series [3] was “inhibited MC degranulation”. In addition, in series [2], the “effect on MC degranulation induced by δ-toxin” value is on record as “inhibited MC degranulation”.
As to `CCCCC[C@H](O)/C=C/C=C\C=C\C=C\[C@@H](O)[C@@H](O)CCCC(=O)O` [Lipoxin A4], the “induction of MC degranulation” value in series [2] is “did not induce mouse MC degranulation”.
Take `CC[C@H](C)[C@H](NC(=O)[C@H](Cc1c[nH]c2ccccc12)NC(=O)[C@H](CCCCN)NC(=O)[C@@H](NC(=O)[C@H](CC(C)C)NC(=O)[C@H](CC(=O)O)NC(=O)CNC(=O)[C@@H](NC(=O)[C@@H](NC(=O)[C@H](CO)NC(=O)[C@@H](NC(=O)[C@@H](NC(=O)[C@H](CC(=O)O)NC(=O)[C@H](CCC(N)=O)NC(=O)[C@H](C)NC(=O)[C@@H](N)CCSC)[C@@H](C)CC)[C@@H](C)CC)[C@@H](C)O)[C@@H](C)CC)C(C)C)C(=O)N[C@H](C(=O)N[C@@H](CC(=O)O)C(=O)N[C@H](C(=O)N[C@H](C(=O)N[C@@H](CC(N)=O)C(=O)N[C@@H](CCCCN)C(=O)N[C@@H](Cc1ccccc1)C(=O)N[C@H](C(=O)N[C@@H](CCCCN)C(=O)N[C@@H](CCCCN)C(=O)O)[C@@H](C)O)C(C)C)[C@@H](C)O)[C@@H](C)CC` [δ-toxin]: the “cell viability / cell death in MCs” value in series [4] was “did not induce detectable cell death”.
`C[C@H](CCC(=O)O)C[C@H](C)C[C@H](C)C(=O)/C=C(\O)[C@H](C)C[C@H](C)C/C=C/[C@@H](C)[C@@H](O)[C@@H](C)[C@@H](O)C[C@@H]1CC[C@@](C)([C@H]2CC[C@@](C)([C@@H](C)O)O2)O1` [ionomycin]: in series [1], the “induction of Ca2+ influx” value is “induced rapid Ca 2+ influx”.
Take LESIFRSLLFRVM [MMK1, human FPR2 ligand]: the “induction of MC degranulation” value in series [2] is recorded as “did not induce mouse MC degranulation”.
`CC[C@H](C)[C@H](NC(=O)CNC(=O)[C@H](CCSC)NC=O)C(=O)N[C@H](C(=O)N[C@@H](C)C(=O)NCC(=O)N[C@H](C(=O)N[C@H](C(=O)N[C@@H](CCCCN)C(=O)N[C@@H](Cc1ccccc1)C(=O)N[C@H](C(=O)N[C@@H](CCCCN)C(=O)NCC(=O)N[C@@H](CC(C)C)C(=O)N[C@H](C(=O)N[C@@H](CCC(=O)O)C(=O)N[C@@H](CCCCN)C(=O)N[C@@H](Cc1ccccc1)C(=O)N[C@H](C(=O)NCC(=O)N[C@@H](CCCCN)C(=O)O)[C@@H](C)O)[C@@H](C)CC)[C@@H](C)CC)[C@@H](C)CC)[C@@H](C)CC)[C@@H](C)CC` [PSMα3]: in series [4], the “cell viability / cell death in MCs” value is given as “induced robust loss of cell viability”.
Consider `CC[C@H](C)[C@H](NC(=O)CNC(=O)[C@H](CCSC)NC=O)C(=O)N[C@H](C(=O)N[C@@H](C)C(=O)NCC(=O)N[C@H](C(=O)N[C@H](C(=O)N[C@@H](CCCCN)C(=O)N[C@H](C(=O)N[C@H](C(=O)N[C@@H](CCCCN)C(=O)N[C@@H](CO)C(=O)N[C@@H](CC(C)C)C(=O)N[C@H](C(=O)N[C@@H](CCC(=O)O)C(=O)N[C@@H](CCC(N)=O)C(=O)N[C@@H](Cc1ccccc1)C(=O)N[C@H](C(=O)NCC(=O)N[C@@H](CCCCN)C(=O)O)[C@@H](C)O)[C@@H](C)CC)[C@@H](C)CC)C(C)C)[C@@H](C)CC)[C@@H](C)CC)[C@@H](C)CC` [PSMα2] (For-MGIIAGIIKVIKSLIEQFTGK-OH), for which the “cell viability / cell death in MCs” value in series [4] is “induced robust loss of cell viability”. Besides, in series [5], the cell death result is reported as “triggered robust cell death”.
